The series can be described thus: Ibuprofen concentration in 0.1 N HCl by HPLC UV. Format: physicochemical. Conditions: 1 g solid dispersion (=200 mg ibuprofen) or raw drug in 900 mL 0.1 N HCl, stirred at 100 rpm for 0.5 h. On the procedure:
(§1) Samples were taken and ibuprofen concentration was measured by HPLC UV.
as §1

`CC(C)Cc1ccc(C(C)C(=O)O)cc1` (stereo not shown) [ibuprofen] registered an ibuprofen concentration of 0.030 µg/mL.
